Values quoted from earlier work, collected in PubChem BioAssay AID1259409 (Chemical Carcinogenesis Research Information System (CCRIS), 2018).

Test system: rodent chemically induced tumor inhibition, incidence and multiplicity
Test: CCRIS tumor inhibitor studies
Conditions: Dose [Inhibitor]: 0, Species: RAT, Promoter: NONE USED

| Structure (SMILES) | tumour outcome (control, treated, inhibition, significance) (Carcinogen: N-ETHYL-N-NITROSOUREA, 759-73-9, 1000 MG/L IN DRINKING WATER FOR 12 MO ADMINISTERED TO CARCINOGEN-TREATED MOTHERS (STUDY DURATION: 12 MO), Route [Inhibitor]: ORAL, Strain/Sex: ALBINO/MALE, FEMALE, Target Tissue: Type of Lesion: PERIPHERAL NERVES: TUMOR, Dose [Carcinogen]: 75 MG/KG BW ADMINISTERED INTRAPERITONEALLY TO MOTHERS 21 D POST CONCEPTION) | tumour outcome (control, treated, inhibition, significance) (Carcinogen: N-ETHYL-N-NITROSOUREA, 759-73-9, 1000 MG/L IN DRINKING WATER FOR 12 MO ADMINISTERED TO OFFSPRING OF CARCINOGEN-TREATED MOTHERS (STUDY DURATION: 12 MO), Route [Inhibitor]: ORAL, Strain/Sex: ALBINO/MALE, FEMALE, Target Tissue: Type of Lesion: BRAIN: TUMOR, Dose [Carcinogen]: 75 MG/KG BW ADMINISTERED INTRAPERITONEALLY TO MOTHERS 21 D POST CONCEPTION) | tumour outcome (control, treated, inhibition, significance) (Carcinogen: N-ETHYL-N-NITROSOUREA, 759-73-9, 1000 MG/L IN DRINKING WATER FOR 12 MO ADMINISTERED TO OFFSPRING OF CARCINOGEN-TREATED MOTHERS (STUDY DURATION: 12 MO), Route [Inhibitor]: ORAL, Strain/Sex: ALBINO/MALE, FEMALE, Target Tissue: Type of Lesion: KIDNEY: TUMOR, Dose [Carcinogen]: 75 MG/KG BW ADMINISTERED INTRAPERITONEALLY TO MOTHERS 21 D POST CONCEPTION) | tumour outcome (control, treated, inhibition, significance) (Carcinogen: N-ETHYL-N-NITROSOUREA, 759-73-9, 1000 MG/L IN DRINKING WATER FOR 12 MO ADMINISTERED TO OFFSPRING OF CARCINOGEN-TREATED MOTHERS (STUDY DURATION: 12 MO), Route [Inhibitor]: ORAL, Strain/Sex: ALBINO/MALE, FEMALE, Target Tissue: Type of Lesion: SPINAL CHORD: TUMOR, Dose [Carcinogen]: 75 MG/KG BW ADMINISTERED INTRAPERITONEALLY TO MOTHERS 21 D POST CONCEPTION) | tumour outcome (control, treated, inhibition, significance) (Carcinogen: 1,2-DIMETHYLHYDRAZINE, 540-73-8, 250 MG/KG BW IN CORN OIL ADMINISTERED 24 AND 2 HR PRIOR TO AND 24 HR POST EACH CARCINOGEN DOSE (STUDY DURATION: 8 MO), Route [Inhibitor]: GAVAGE, Strain/Sex: BD6/MALE, Target Tissue: Type of Lesion: INTESTINE: TUMOR, Dose [Carcinogen]: 20 MG/KG BW 1/WK FOR 20 WK) |
| --- | --- | --- | --- | --- | --- |
| NCCCCCC(=O)O | 24/63 (38%), 7/33 (21%), 45%, not significant | 53/63 (84%), 21/33 (64%), 24%, p<0.05 | 23/63 (37%), 7/33 (21%), 43%, not significant | 17/63 (27%), 15/33 (45%), -67%, not significant |  |
| S=C=S |  |  |  |  | 100%, 0%, 100%, not calculated |
